Measurements taken from ChEMBL document CHEMBL1909046, “DrugMatrix in vitro pharmacology data”.
pIC50, pKi: −log10 of the molar value.

Key:
[1] = biological target: T1, Polyunsaturated fatty acid lipoxygenase ALOX15 (Oryctolagus cuniculus, UniProt P12530); assay: biochemical; type: tissue-based, Reticulocytes; conditions: for IC50: reticulocytes; for pIC50: read-out: IC50;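 on all read-outs here: inhibition of 15-lipoxygenase enzyme activity measured with linoleic acid as the substrate; in other assays of this panel Not Active means under 50% inhibition at 10 µM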
T1 sequence (P12530 whole entry): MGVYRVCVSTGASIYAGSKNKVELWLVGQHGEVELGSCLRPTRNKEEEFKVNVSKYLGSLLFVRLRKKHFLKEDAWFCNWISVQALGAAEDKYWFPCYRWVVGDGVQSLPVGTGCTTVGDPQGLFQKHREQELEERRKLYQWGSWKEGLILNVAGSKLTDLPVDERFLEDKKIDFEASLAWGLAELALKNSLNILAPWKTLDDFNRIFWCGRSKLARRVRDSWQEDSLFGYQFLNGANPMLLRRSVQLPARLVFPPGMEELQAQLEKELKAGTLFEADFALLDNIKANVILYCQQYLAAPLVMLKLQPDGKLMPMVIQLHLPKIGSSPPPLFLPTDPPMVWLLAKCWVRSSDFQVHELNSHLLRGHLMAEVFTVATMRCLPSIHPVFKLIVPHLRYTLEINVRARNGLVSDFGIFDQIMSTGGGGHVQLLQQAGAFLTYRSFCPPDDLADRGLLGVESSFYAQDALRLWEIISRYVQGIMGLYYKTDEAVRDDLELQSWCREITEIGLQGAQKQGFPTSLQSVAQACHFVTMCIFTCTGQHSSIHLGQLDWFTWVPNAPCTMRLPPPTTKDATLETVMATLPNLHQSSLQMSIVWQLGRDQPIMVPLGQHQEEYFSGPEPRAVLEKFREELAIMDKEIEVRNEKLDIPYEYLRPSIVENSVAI

Progesterone receptor = biological target: T2, Progesterone receptor (Bos taurus, UniProt Q690N0); assay: DRUGMATRIX: Progesterone radioligand binding (ligand: [3H] R-5020); type: tissue-based, Uterus; conditions: Not Active = under 50% inhibition at 10 µM; for pIC50: read-out: IC50; for pKi: read-out: Ki
T2 sequence (Q690N0 whole entry): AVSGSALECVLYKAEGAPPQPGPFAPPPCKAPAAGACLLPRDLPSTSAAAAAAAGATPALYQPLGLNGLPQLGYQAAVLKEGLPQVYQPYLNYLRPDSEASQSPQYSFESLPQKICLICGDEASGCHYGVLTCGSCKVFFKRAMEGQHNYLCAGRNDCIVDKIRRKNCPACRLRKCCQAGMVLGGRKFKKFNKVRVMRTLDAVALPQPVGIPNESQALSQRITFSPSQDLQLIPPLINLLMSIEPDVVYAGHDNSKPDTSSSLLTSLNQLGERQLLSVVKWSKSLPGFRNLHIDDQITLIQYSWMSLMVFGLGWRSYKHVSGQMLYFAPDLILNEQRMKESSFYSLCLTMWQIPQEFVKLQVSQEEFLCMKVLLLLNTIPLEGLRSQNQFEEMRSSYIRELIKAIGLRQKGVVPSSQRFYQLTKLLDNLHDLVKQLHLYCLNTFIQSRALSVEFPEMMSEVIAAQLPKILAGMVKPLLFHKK

[2] = biological target: Protein kinase C alpha type (Homo sapiens, UniProt P17252); type: cell-based; conditions: sf9;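 further: inhibition of PKCalpha kinase activity measured in an enzyme assay with histone as the phosphorylation substrate; in other assays of this panel Not Active means under 50% inhibition at 10 µM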
[3] = biological target: Delta-type opioid receptor (Homo sapiens, UniProt P41143); type: cell membranes, HEK293, Membrane; conditions: for IC50: hek293; on all read-outs here: in other assays of this panel Not Active means under 50% inhibition at 10 µM
Cytochrome P450 2A6 = biological target: T3, Cytochrome P450 2A6 (Homo sapiens, UniProt P11509); conditions: bti-tn-5b1-4; further: in other assays of this panel Not Active means under 50% inhibition at 10 µM
T3 sequence (P11509 whole entry): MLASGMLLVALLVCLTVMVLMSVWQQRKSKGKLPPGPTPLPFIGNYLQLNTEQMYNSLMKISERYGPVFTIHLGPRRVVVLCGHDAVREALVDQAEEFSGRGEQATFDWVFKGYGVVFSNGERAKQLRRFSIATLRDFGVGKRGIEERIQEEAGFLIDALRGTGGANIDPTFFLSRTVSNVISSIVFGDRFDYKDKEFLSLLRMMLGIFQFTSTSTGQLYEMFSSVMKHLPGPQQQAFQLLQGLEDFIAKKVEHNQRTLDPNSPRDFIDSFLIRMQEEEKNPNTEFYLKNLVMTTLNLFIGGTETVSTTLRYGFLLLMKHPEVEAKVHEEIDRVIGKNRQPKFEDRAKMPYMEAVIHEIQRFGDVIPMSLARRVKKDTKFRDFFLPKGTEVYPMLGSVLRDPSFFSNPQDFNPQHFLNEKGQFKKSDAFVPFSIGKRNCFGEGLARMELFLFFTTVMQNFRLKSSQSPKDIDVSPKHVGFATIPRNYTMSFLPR

[4] = biological target: T4, Muscarinic acetylcholine receptor M2 (Homo sapiens, UniProt P08172); type: cell membranes, CHO-K1, Membrane; conditions: for IC50: cho-k1; for pIC50: read-out: IC50; for pKi: read-out: Ki
T4 sequence (P08172 whole entry): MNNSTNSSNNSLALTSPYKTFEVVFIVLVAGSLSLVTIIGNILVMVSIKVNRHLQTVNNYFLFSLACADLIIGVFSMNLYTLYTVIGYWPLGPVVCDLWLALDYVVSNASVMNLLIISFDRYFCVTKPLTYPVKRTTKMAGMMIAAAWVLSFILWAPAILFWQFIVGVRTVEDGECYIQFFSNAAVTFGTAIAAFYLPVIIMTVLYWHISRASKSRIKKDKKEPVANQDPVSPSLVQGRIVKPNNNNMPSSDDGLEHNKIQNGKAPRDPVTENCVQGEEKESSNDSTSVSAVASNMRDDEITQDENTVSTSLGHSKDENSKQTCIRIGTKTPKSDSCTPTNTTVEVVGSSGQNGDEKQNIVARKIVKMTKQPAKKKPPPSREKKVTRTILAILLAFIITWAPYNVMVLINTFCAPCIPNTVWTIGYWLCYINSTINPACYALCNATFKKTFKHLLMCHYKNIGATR

Delta-type opioid receptor, sequence (P41143 whole entry): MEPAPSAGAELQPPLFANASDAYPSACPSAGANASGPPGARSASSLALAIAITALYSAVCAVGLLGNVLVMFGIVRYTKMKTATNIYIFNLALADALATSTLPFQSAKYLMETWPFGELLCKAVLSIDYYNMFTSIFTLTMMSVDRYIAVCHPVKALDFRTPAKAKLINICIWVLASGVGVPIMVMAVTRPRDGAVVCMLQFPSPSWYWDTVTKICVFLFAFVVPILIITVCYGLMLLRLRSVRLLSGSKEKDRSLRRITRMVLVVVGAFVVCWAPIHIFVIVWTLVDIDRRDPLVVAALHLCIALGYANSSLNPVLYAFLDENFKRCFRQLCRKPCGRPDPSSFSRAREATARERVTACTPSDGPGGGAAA

CCCNC(C)C(=O)Nc1ccccc1C (centres undefined) [PRILOCAINE]
Not Active: IC50 [1] | IC50 (Progesterone receptor) | IC50 [2] | IC50 [3] | IC50 (Cytochrome P450 2A6) | Ki (Cytochrome P450 2A6) | IC50 [4]

NS(=O)(=O)c1cc(C2(O)NC(=O)c3ccccc32)ccc1Cl (centres undefined) [CHLORTHALIDONE]
Not Active: IC50 [1] | IC50 (Progesterone receptor) | IC50 [2] | IC50 [3] | IC50 (Cytochrome P450 2A6) | Ki (Cytochrome P450 2A6) | IC50 [4]

CCN(CC)CCCC(C)Nc1c2ccc(Cl)cc2nc2ccc(OC)cc12 (centres undefined) [QUINACRINE]
Not Active: IC50 [1] | IC50 (Progesterone receptor) | IC50 [2] | IC50 [3] | IC50 (Cytochrome P450 2A6) | Ki (Cytochrome P450 2A6)
6.02: pIC50 [4]
6.46: pKi [4]

CN1CCC(=C2c3ccccc3CC(=O)c3sccc32)CC1 [KETOTIFEN]
6.08: pIC50 [4]
Not Active: IC50 [1] | IC50 (Progesterone receptor) | IC50 [2] | IC50 [3] | IC50 (Cytochrome P450 2A6) | Ki (Cytochrome P450 2A6)
6.53: pKi [4]

Cc1c(O)cccc1C(=O)N[C@@H](CSc1ccccc1)[C@H](O)CN1C[C@H]2CCCC[C@H]2C[C@H]1C(=O)NC(C)(C)C
Not Active: IC50 [2] | IC50 (Cytochrome P450 2A6) | Ki (Cytochrome P450 2A6) | IC50 [4]
4.35: pIC50 (Progesterone receptor)
5.24: pKi (Progesterone receptor)
4.63: pKi ([3]; read-out: Ki)
4.86: pIC50 [1]
4.18: pIC50 ([3]; read-out: IC50)

Cn1c(=O)c2c(ncn2C)n(C)c1=O [CAFFEINE]
Not Active: IC50 [1] | IC50 (Progesterone receptor) | IC50 [2] | IC50 [3] | IC50 (Cytochrome P450 2A6) | Ki (Cytochrome P450 2A6) | IC50 [4]

CC(C)NCC(O)c1ccccc1Cl (centres undefined) [CLORPRENALINE]
Not Active: IC50 [1] | IC50 (Progesterone receptor) | IC50 [2] | IC50 [3] | IC50 (Cytochrome P450 2A6) | Ki (Cytochrome P450 2A6) | IC50 [4]

NC(=O)c1cccnc1 [NIACINAMIDE]
Not Active: IC50 [1] | IC50 (Progesterone receptor) | IC50 [2] | IC50 [3] | IC50 (Cytochrome P450 2A6) | Ki (Cytochrome P450 2A6) | IC50 [4]

C[C@]12C=CC(=O)C=C1CC[C@H]1[C@@H]3C[C@@H](O)[C@](O)(C(=O)CO)[C@@]3(C)C[C@H](O)[C@@]12F [TRIAMCINOLONE]
Not Active: IC50 [1] | IC50 (Progesterone receptor) | IC50 [2] | IC50 [3] | IC50 (Cytochrome P450 2A6) | Ki (Cytochrome P450 2A6) | IC50 [4]

CC(=O)OCC(=O)[C@@]1(O)CC[C@H]2[C@@H]3CCC4=CC(=O)CC[C@]4(C)[C@@]3(F)[C@@H](O)C[C@@]21C [FLUDROCORTISONE ACETATE]
Not Active: IC50 [1] | IC50 (Progesterone receptor) | IC50 [2] | IC50 [3] | IC50 (Cytochrome P450 2A6) | Ki (Cytochrome P450 2A6) | IC50 [4]

CN(C)C(=O)Oc1cccc([N+](C)(C)C)c1.[Br-] [NEOSTIGMINE BROMIDE]
Not Active: IC50 [1] | IC50 (Progesterone receptor) | IC50 [2] | IC50 [3] | IC50 (Cytochrome P450 2A6) | Ki (Cytochrome P450 2A6) | IC50 [4]

C[C@]12CC[C@@H]3c4ccc(O)cc4CC[C@H]3[C@@H]1C[C@@H](O)[C@@H]2O [ESTRIOL]
5.06: pIC50 [1]
Not Active: IC50 (Progesterone receptor) | IC50 [2] | IC50 [3] | IC50 (Cytochrome P450 2A6) | Ki (Cytochrome P450 2A6) | IC50 [4]

CCN(CC)CCNC(=O)c1ccc(N)cc1 [PROCAINAMIDE]
Not Active: IC50 [1] | IC50 (Progesterone receptor) | IC50 [2] | IC50 [3] | IC50 (Cytochrome P450 2A6) | Ki (Cytochrome P450 2A6) | IC50 [4]

O=C(O)P(=O)(O)O [FOSCARNET]
Not Active: IC50 [1] | IC50 (Progesterone receptor) | IC50 [2] | IC50 [3] | IC50 (Cytochrome P450 2A6) | Ki (Cytochrome P450 2A6) | IC50 [4]

C[C@H]1[C@H](NC(=O)/C(=N\OC(C)(C)C(=O)O)c2csc(N)n2)C(=O)N1S(=O)(=O)O [AZTREONAM]
Not Active: IC50 [1] | IC50 (Progesterone receptor) | IC50 [2] | IC50 [3] | IC50 (Cytochrome P450 2A6) | Ki (Cytochrome P450 2A6) | IC50 [4]

CN1C[C@@H]2C[C@H]1CN2c1cc2c(cc1F)c(=O)c(C(=O)O)cn2C1CC1 [DANOFLOXACIN]
Not Active: IC50 [1] | IC50 (Progesterone receptor) | IC50 [2] | IC50 [3] | IC50 (Cytochrome P450 2A6) | Ki (Cytochrome P450 2A6) | IC50 [4]

CC(=O)OCC(=O)[C@@]12OC(C)(C)O[C@@H]1C[C@H]1[C@@H]3C[C@H](F)C4=CC(=O)C=C[C@]4(C)[C@@]3(F)[C@@H](O)C[C@@]12C [FLUOCINONIDE]
Not Active: IC50 [1] | IC50 [2] | IC50 [3] | IC50 [4]
8.54: pKi (Progesterone receptor)
7.66: pIC50 (Progesterone receptor)

CN1CCCC(CN2c3ccccc3Sc3ccccc32)C1 (centres undefined) [MEPAZINE]
6.70: pKi [4]
6.25: pIC50 [4]
Not Active: IC50 [1] | IC50 (Progesterone receptor) | IC50 [2] | IC50 [3] | IC50 (Cytochrome P450 2A6) | Ki (Cytochrome P450 2A6)

NCCCNCCSP(=O)(O)O [AMIFOSTINE]
Not Active: IC50 [1] | IC50 [2] | IC50 [3] | IC50 (Cytochrome P450 2A6) | Ki (Cytochrome P450 2A6) | IC50 [4]

C[C@@H]1C/C=C/C=C/C=C/C=C/[C@H](O[C@@H]2O[C@H](C)[C@@H](O)[C@H](N)[C@@H]2O)C[C@@H]2O[C@](O)(C[C@@H](O)C[C@H]3O[C@@H]3/C=C/C(=O)O1)C[C@H](O)[C@H]2C(=O)O [NATAMYCIN]
Not Active: IC50 [1] | IC50 (Progesterone receptor) | IC50 [2] | IC50 [3] | IC50 [4]

NC12CC3CC(CC(C3)C1)C2 [AMANTADINE]
Not Active: IC50 [1] | IC50 (Progesterone receptor) | IC50 [2] | IC50 [3] | IC50 [4]

CN(C)CCC=C1c2ccccc2CCc2ccccc21 [AMITRIPTYLINE]
Not Active: IC50 [1] | IC50 (Progesterone receptor) | IC50 [2] | IC50 [3] | IC50 (Cytochrome P450 2A6) | Ki (Cytochrome P450 2A6)

N=C(N)c1ccc(OCCCCCOc2ccc(C(=N)N)cc2)cc1 [PENTAMIDINE]
Not Active: IC50 [1] | IC50 (Progesterone receptor) | IC50 [2] | IC50 [3] | IC50 (Cytochrome P450 2A6) | Ki (Cytochrome P450 2A6)

CC(O)(P(=O)(O)O)P(=O)(O)O [ETIDRONIC ACID]
Not Active: IC50 [1] | IC50 [2] | IC50 [3] | IC50 (Cytochrome P450 2A6) | Ki (Cytochrome P450 2A6) | IC50 [4]

N[C@@H](Cn1ccc(=O)c(O)c1)C(=O)O [L-MIMOSINE]
Not Active: IC50 [1] | IC50 (Progesterone receptor) | IC50 [2] | IC50 [3] | IC50 [4]
